According to patent US20240299559A1, “COMPOUNDS THAT MEDIATE PROTEIN DEGRADATION AND METHODS OF USE THEREOF” (Monte Rosa Therapeutics, Inc., priority 2021, published 2024):

Legend:
CRBN-DDB1 = CRBN-DDB1 (Homo sapiens, UniProt Q96SW2); test: Compound binding to CRBN by HTRF assay; conditions: CRBN-DDB1 2.5 nM, Cy5-Thalidomide 100 nM probe; Ki from geometric mean of IC50 by Cheng-Prustoff transformation
Experimental: Compound activity was monitored in a Homogenous Time-Resolved Fluorescence (HTRF) assay using 1-[5-({2-[2-(2-{[2-(2,6-dioxopiperidin-3-yl)-1,3-dioxo-2,3-dihydro-1H-isoindol-4-yl]oxy}acetamido)ethoxy]ethyl}carbamoyl)pentyl]-3,3-dimethyl-2-[(1E,3E)-5-[(2E)-1,3,3-trimethyl-5-sulfo-2,3-dihydro-1H-indol-2-ylidene]penta-1,3-dien-1-yl]-3H-indol-1-ium-5-sulfonate as a fluorescent probe. Biochemical assays were conducted in Greiner white 384 well HiBase plates (Cat. No 784075-25) in 10 μL total volume. A one pot detection solution of CRBN-DDB1 (2.5 nM), Anti-His Terbium Cryptate Gold (1×, PerkinElmer Cat. #: 61HI2TLB), and Cy5-Thalidomide (100 nM, Tenova Cat.: T52461) was prepared in 20 mM HEPES, 20 mM NaCl, 0.2 mM TCEP, 0.2 mM EDTA, and 0.005% Tween20 was dispensed to each assay plate. Compounds were stored in dry, ambient temperatures at 10 mM. A 10-point, 1:3 dilution series was prepared from 10 mM stock concentrations in Echo-compatible LDV plates. 10 nL of each compound dilution series was dispensed into assays wells using an Echo 650 (Labcyte inc. USA). 10 nL of 10 mM Lenalidomide was transferred into the active-control wells for the assay and 10 nL of DMSO was transferred into the neutral-control wells. The assay was then allowed to incubate for 30 min at ambient temperature after transferring compound. Plate measurements were taken on a Pherastar FSX (BMG Labtech, Germany) using the HTRF Red filter (Ex. 337 nm, em1:620 nm, em2:665 nm) (Flashes: 50, Integration time: 60-400 us, Z-height: 10 mm, Ratio-multipler: 10,000). The HTRF signal was then subsequently normalized to the neutral and active controls. Analysis and IC50 values were derived using KNIME analytics (KNIME Zurich) transformation and fitting within Collaborative Drug Discovery (Collaborative Drug Discovery USA). Ki was derived from the geometric mean of the IC50 values using the Cheng-Prustoff transformation.

CDK2 = target: T1, CDK2 (Homo sapiens, UniProt P24941); test: CDK2 HiBiT assay (degradation, Dmax); format: cell-based; conditions: HEK293 clonal lines with CRISPR KI HiBiT tag on CDK2, stably expressing LgBiT; 24 hours incubation
T1 construct: HEK293 clonal lines with CRISPR KI HiBiT tag on CDK2 proteins; host or cells: HEK293 clonal line with CRISPR knock-in HiBiT on CDK2, stably expressing LgBiT
Experimental: HEK293 clonal lines with CRISPR KI HiBiT tag on CDK2 proteins and stably expressing LgBiT protein were obtained from Promega (Madison, WI). Cells were plated at 5000 cells per well using Multiflo (BioTek) in 384-well white solid bottom plates (Corning, 3570BC) in 25 ul volume in DMEM media (DMEM, high glucose, HEPES, no phenol red (ThermoFisher Scientific, 21063029)) containing 10% FBS (Corning, 35-075-CV), 1% Penicillin/Streptomycin (ThermoFisher Scientific, 15140-122). Cells were incubated for 16 hours at 37° C., 5% CO2. 75 nL of a compound at 30 μM were dosed into the plate using an Echo® 650 liquid handler (Labcyte). Cells were incubated at 37° C., 5% CO2 for 24 hours. 5 ul of HiBiT Lysis Reagent (Promega, N3030) is added using Combi Multidrop (ThermoFisher Scientific), plates are incubated for 15′ at 37° C., 5% CO2 and then signal was read on a Pherastar FSX using “LUM plus” optic module.
Analysis was performed in Scinamic (Scinamic, Cambridge, MA). Luminescence response (R) was calculated by the formula: response=100*(S−N)/(P−N) where S is the signal of the well, N and P the mean negative and positive control values respectively of the same plate. The luminescence response was then fitted in Scinamic using a 3-parameter agonist logistic fit (hillslope=1, EC50>0, top/bottom unconstrained).

CRBN-DDB1, sequence (Q96SW2 whole entry): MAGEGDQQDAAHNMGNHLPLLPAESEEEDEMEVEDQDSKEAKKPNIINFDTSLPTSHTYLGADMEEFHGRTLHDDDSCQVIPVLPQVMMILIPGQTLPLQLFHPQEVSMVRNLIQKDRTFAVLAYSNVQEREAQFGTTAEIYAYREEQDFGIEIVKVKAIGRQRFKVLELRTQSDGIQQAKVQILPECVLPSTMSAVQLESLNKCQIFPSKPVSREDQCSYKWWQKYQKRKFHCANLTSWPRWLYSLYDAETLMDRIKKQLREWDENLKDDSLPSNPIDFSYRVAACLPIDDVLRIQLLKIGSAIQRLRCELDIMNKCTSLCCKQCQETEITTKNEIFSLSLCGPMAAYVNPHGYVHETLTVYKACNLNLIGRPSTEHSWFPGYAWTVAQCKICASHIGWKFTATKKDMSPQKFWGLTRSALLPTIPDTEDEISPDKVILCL
CRBN-DDB1, sequence (Q16531 whole entry partner): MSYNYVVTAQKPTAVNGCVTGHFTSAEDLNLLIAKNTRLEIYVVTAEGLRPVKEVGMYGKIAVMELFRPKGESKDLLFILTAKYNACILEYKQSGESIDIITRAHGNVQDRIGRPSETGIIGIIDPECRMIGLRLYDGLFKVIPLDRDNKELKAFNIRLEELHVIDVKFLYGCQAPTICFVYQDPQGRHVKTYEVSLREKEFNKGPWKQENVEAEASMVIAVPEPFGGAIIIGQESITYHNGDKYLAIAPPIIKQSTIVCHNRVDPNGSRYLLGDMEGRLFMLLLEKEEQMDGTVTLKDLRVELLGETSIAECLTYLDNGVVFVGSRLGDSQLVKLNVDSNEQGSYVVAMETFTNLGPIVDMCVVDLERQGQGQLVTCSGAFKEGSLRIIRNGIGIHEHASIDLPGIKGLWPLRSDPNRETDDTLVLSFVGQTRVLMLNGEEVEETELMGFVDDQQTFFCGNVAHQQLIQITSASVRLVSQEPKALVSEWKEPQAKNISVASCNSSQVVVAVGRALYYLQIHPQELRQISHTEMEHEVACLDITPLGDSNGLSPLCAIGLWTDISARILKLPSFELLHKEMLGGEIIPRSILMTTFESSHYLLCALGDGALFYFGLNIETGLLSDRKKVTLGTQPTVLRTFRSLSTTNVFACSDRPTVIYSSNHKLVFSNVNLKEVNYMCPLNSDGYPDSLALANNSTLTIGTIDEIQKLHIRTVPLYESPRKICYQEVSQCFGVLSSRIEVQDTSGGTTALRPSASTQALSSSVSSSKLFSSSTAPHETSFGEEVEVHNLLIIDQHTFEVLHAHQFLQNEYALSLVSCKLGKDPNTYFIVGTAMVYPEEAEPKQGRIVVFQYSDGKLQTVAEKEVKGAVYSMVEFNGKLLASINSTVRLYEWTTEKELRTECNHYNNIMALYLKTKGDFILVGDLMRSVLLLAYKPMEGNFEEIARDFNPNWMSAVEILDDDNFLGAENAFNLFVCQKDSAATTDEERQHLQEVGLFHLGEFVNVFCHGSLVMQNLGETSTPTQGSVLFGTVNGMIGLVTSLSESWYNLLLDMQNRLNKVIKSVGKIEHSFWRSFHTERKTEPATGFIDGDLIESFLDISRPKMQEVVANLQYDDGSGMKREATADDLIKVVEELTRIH

Row | Compound | Ki (CRBN-DDB1) [µM] | Dmax (CDK2) [%]
1 | O=C1CCC(N2Cc3ccc(CCNC(=O)OCc4ccc(OC5CCOCC5)nc4)cc3C2=O)C(=O)N1 (stereo not shown) [Compound 1, (6-((tetrahydro-2H-pyran-4-yl)oxy)pyridin-3-yl)methyl (2-(2-(2,6-dioxopiperidin-3-yl)-3-oxoisoindolin-5-yl)ethyl)carbamate] | 0.1 to 1 | 10 to 50
2 | O=C1CCC(N2Cc3ccc(COC(=O)NCc4ccc(OC5CCOCC5)nc4)cc3C2=O)C(=O)N1 (stereo not shown) [Compound 2, (2-(2,6-dioxopiperidin-3-yl)-3-oxoisoindolin-5-yl)methyl((6-((tetrahydro-2H-pyran-4-yl)oxy)pyridin-3-yl)methyl)carbamate] | 0.1 to 1 | 10 to 50
3 | O=C1CCC(N2Cc3ccc(CNC(=O)OCc4ccc(OC5CCOCC5)cc4)cc3C2=O)C(=O)N1 (stereo not shown) [Compound 3, 4-((tetrahydro-2H-pyran-4-yl)oxy)benzyl((2-(2,6-dioxopiperidin-3-yl)-3-oxoisoindolin-5-yl)methyl)carbamate] | 0.1 to 1 | 10 to 50
4 | O=C1CCC(N2Cc3ccc(CNC(=O)OCc4cccc(-c5ccc(F)cc5)n4)cc3C2=O)C(=O)N1 (stereo not shown) [Compound 4, (6-(4-fluorophenyl)pyridin-2-yl)methyl((2-(2,6-dioxopiperidin-3-yl)-3-oxoisoindolin-5-yl)methyl)carbamate] | 0.1 to 1 | 10 to 50
5 | O=C1CCC(N2Cc3ccc(CNC(=O)OCc4ccnc(-c5ccc(F)cc5)c4)cc3C2=O)C(=O)N1 (stereo not shown) [Compound 5, (2-(4-fluorophenyl)pyridin-4-yl)methyl((2-(2,6-dioxopiperidin-3-yl)-3-oxoisoindolin-5-yl)methyl)carbamate] | 0.1 to 1 | 10 to 50
6 | O=C1CCC(N2Cc3ccc(CNC(=O)OCc4cccc(-c5ccccc5)c4)cc3C2=O)C(=O)N1 (stereo not shown) [Compound 6, [1,1′-biphenyl]-3-ylmethyl ((2-(2,6-dioxopiperidin-3-yl)-3-oxoisoindolin-5-yl)methyl)carbamate] | ≤ 0.1 | 10 to 50
7 | Cc1ccc(-c2cccc(COC(=O)NCc3ccc4c(c3)C(=O)N(C3CCC(=O)NC3=O)C4)c2)cc1 (stereo not shown) [Compound 7, (4′-methyl-[1,1′-biphenyl]-3-yl)methyl ((2-(2,6-dioxopiperidin-3-yl)-3-oxoisoindolin-5-yl)methyl)carbamate] | 0.1 to 1 | 10 to 50
8 | O=C1CCC(N2Cc3ccc(CNC(=O)OCc4cccc(-c5ccc(Cl)cc5)c4)cc3C2=O)C(=O)N1 (stereo not shown) [Compound 8, (4′-chloro-[1,1′-biphenyl]-3-yl)methyl ((2-(2,6-dioxopiperidin-3-yl)-3-oxoisoindolin-5-yl)methyl)carbamate] | 0.1 to 1 | 10 to 50
9 | O=C1CCC(N2Cc3ccc(CNC(=O)OCc4cccc(-c5ccc(C(F)(F)F)cc5)c4)cc3C2=O)C(=O)N1 (stereo not shown) [Compound 9, (4′-(trifluoromethyl)-[1,1′-biphenyl]-3-yl)methyl((2-(2,6-dioxopiperidin-3-yl)-3-oxoisoindolin-5-yl)methyl)carbamate] | 0.1 to 1 | 50 to 80
10 | O=C1CCC(N2Cc3ccc(CNC(=O)OCc4cccc(-c5cccc(F)c5)c4)cc3C2=O)C(=O)N1 (stereo not shown) [Compound 10, (3′-fluoro-[1,1′-biphenyl]-3-yl)methyl ((2-(2,6-dioxopiperidin-3-yl)-3-oxoisoindolin-5-yl)methyl)carbamate] | 0.1 to 1 | 50 to 80
11 | O=C1CCC(N2Cc3ccc(CNC(=O)OCc4cccc(-c5cccc(C(F)(F)F)c5)c4)cc3C2=O)C(=O)N1 (stereo not shown) [Compound 11, (3′-(trifluoromethyl)-[1,1′-biphenyl]-3-yl)methyl ((2-(2,6-dioxopiperidin-3-yl)-3-oxoisoindolin-5-yl)methyl)carbamate] | 0.1 to 1 | 50 to 80
12 | Cc1c(COC(=O)NCc2ccc3c(c2)C(=O)N(C2CCC(=O)NC2=O)C3)cccc1-c1ccccc1 (stereo not shown) [Compound 12, (2-methyl-[1,1′-biphenyl]-3-yl)methyl ((2-(2,6-dioxopiperidin-3-yl)-3-oxoisoindolin-5-yl)methyl)carbamate] | ≤ 0.1 | 50 to 80
13 | O=C1CCC(N2Cc3ccc(CNC(=O)OCc4cncc(-c5ccccc5)c4)cc3C2=O)C(=O)N1 (stereo not shown) [Compound 13, (5-phenylpyridin-3-yl)methyl ((2-(2,6-dioxopiperidin-3-yl)-3-oxoisoindolin-5-yl)methyl)carbamate] | ≤ 0.1 | 10 to 50
14 | O=C1CCC(N2Cc3ccc(CNC(=O)OCc4cc(-c5ccccc5)ccn4)cc3C2=O)C(=O)N1 (stereo not shown) [Compound 14, (4-phenylpyridin-2-yl)methyl ((2-(2,6-dioxopiperidin-3-yl)-3-oxoisoindolin-5-yl)methyl)carbamate] | 0.1 to 1 | 10 to 50
15 | O=C1CCC(N2Cc3ccc(CNC(=O)OCc4cccc(-c5cccnc5)c4)cc3C2=O)C(=O)N1 (stereo not shown) [Compound 15, 3-(pyridin-3-yl)benzyl ((2-(2,6-dioxopiperidin-3-yl)-3-oxoisoindolin-5-yl)methyl)carbamate] | ≤ 0.1 | 10 to 50
16 | CC(NC(=O)OCc1ccc(OC2CCOCC2)nc1)c1ccc2c(c1)C(=O)N(C1CCC(=O)NC1=O)C2 (stereo not shown) [Compound 16, (6-((tetrahydro-2H-pyran-4-yl)oxy)pyridin-3-yl)methyl (1-(2-(2,6-dioxopiperidin-3-yl)-3-oxoisoindolin-5-yl)ethyl)carbamate] | 0.1 to 1 | 10 to 50
17 | O=C1CCC(N2Cc3ccc(CNC(=O)OCc4ccc(N5CCCC5=O)cc4)cc3C2=O)C(=O)N1 (stereo not shown) [Compound 17, 4-(2-oxopyrrolidin-1-yl)benzyl ((2-(2,6-dioxopiperidin-3-yl)-3-oxoisoindolin-5-yl)methyl)carbamate] | 0.1 to 1 | 10 to 50
18 | O=C1CCC(N2Cc3ccc(CNC(=O)OCc4ccc(C5CCCO5)cc4)cc3C2=O)C(=O)N1 (stereo not shown) [Compound 18] | 0.1 to 1 | 10 to 50
19 | O=C1CCC(N2Cc3ccc(CNC(=O)OCc4ccc([C@H]5CCC[C@@H]5O)cc4)cc3C2=O)C(=O)N1 (stereo partly drawn) [Compound 19, 4-((1R, 2S)-2-hydroxycyclopentyl) benzyl ((2-(2,6-dioxopiperidin-3-yl)-3-oxoisoindolin-5-yl)methyl)carbamate] | 0.1 to 1 | 10 to 50
20 | O=C1CCC(N2Cc3ccc(CNC(=O)OCc4ccccc4)cc3C2=O)C(=O)N1 (stereo not shown) [Compound 20, benzyl ((2-(2,6-dioxopiperidin-3-yl)-3-oxoisoindolin-5-yl)methyl)carbamate] | 0.1 to 1 | 10 to 50
21 | O=C(CCc1cccc(-c2ccc(F)cc2)c1)NCc1ccc2c(c1)C(=O)N(C1CCC(=O)NC1=O)C2 (stereo not shown) [Compound 21, N-((2-(2,6-dioxopiperidin-3-yl)-3-oxoisoindolin-5-yl)methyl)-3-(4′-fluoro-[1,1′-biphenyl]-3-yl)propanamide] | ≤ 0.1 | ≤ 10
22 | O=C1CCC(N2Cc3ccc(CNC(=O)OCCc4ccccc4)cc3C2=O)C(=O)N1 (stereo not shown) [Compound 22, 2-phenylethyl N-{[2-(2,6-dioxopiperidin-3-yl)-3-oxo-2,3-dihydro-1H-isoindol-5-yl]methyl}carbamate] | ≤ 0.1 | 10 to 50
23 | O=C1CCC(N2Cc3ccc(CNC(=O)OCCCc4ccccc4)cc3C2=O)C(=O)N1 (stereo not shown) [Compound 23, 3-phenylpropyl N-{[2-(2,6-dioxopiperidin-3-yl)-3-oxo-2,3-dihydro-1H-isoindol-5-yl]methyl}carbamate] | 0.1 to 1 | 10 to 50
